Data published in patent US20200399222A1, “PICOLINAMIDES AS FUNGICIDES” (Dow AgroSciences LLC, priority 2018, published 2020).
Where two headings read alike, the source gives them in different places.

Assays:
Type in all cases: in vivo
Phakopsora pachyrhizi = assay: Asian soybean rust (PHAKPA) disease control on soybean seedlings; settings: High volume application at 25 ppm
Experimental: Example C: Evaluation of Fungicidal Activity: Asian Soybean Rust (Phakopsora pachyrhizi; Bayer Code […]) Technical grades of materials were dissolved in acetone, which were then mixed with nine volumes of water containing 0.011% Tween 20. The fungicide solutions were applied onto soybean seedlings using an automated booth sprayer to run-off. All sprayed plants were allowed to air dry prior to further handling. Soybean plants (variety Williams 82) were grown in soil-less Metro mix, with one plant per pot. Two week old seedlings were used for testing. Plants were inoculated either 3 days prior to or 1 day after fungicide treatments. Plants were incubated for 24 h in a dark dew room at 22° C. and 100% relative humidity then transferred to a growth room at 23° C. for disease to develop. Disease severity was assessed on the sprayed leaves.

Zymoseptoria tritici = assay: Leaf blotch of wheat (SEPTTR) disease control on wheat seedlings; settings: High volume application, 100 ppm
Experimental: Example A: Evaluation of Fungicidal Activity: Leaf Blotch of Wheat (Zymoseptoria tritici; Bayer Code […]) Technical grades of materials were dissolved in acetone, which were then mixed with nine volumes of water containing 110 ppm Triton X-100. The fungicide solutions were applied onto wheat seedlings using an automated booth sprayer to run-off. All sprayed plants were allowed to air dry prior to further handling. All fungicides were evaluated using the aforementioned method for their activity vs. all target diseases, unless stated otherwise. Wheat leaf blotch and brown rust activity were also evaluated using track spray applications, in which case the fungicides were formulated as EC formulations, containing 0.1% Trycol 5941 in the spray solutions. Wheat plants (variety Yuma) were grown from seed in a greenhouse in 50% mineral soil/50% soil-less Metro mix until the first leaf was fully emerged, with 7-10 seedlings per pot. These plants were inoculated with an aqueous spore suspension of Zymoseptoria tritici either prior to or after fungicide treatments. After inoculation the plants were kept in 100% relative humidity (one day in a dark dew chamber followed by two to three days in a lighted dew chamber at 20° C.) to permit spores to germinate and infect the leaf. The plants were then transferred to a greenhouse set at 20° C. for disease to develop. When disease symptoms were fully expressed on the 1st leaves of untreated plants, infection levels were assessed on a scale of 0 to 100 percent disease severity. Percent disease control was calculated using the ratio of disease severity on treated plants relative to untreated plants.

Puccinia triticina = assay: Wheat brown rust (PUCCRT) disease control on wheat seedlings; settings: High volume application, 100 ppm
Experimental: Technical grades of materials were dissolved in acetone, which were then mixed with nine volumes of water containing 110 ppm Triton X-100. The fungicide solutions were applied onto wheat seedlings using an automated booth sprayer to run-off. All sprayed plants were allowed to air dry prior to further handling. All fungicides were evaluated using the aforementioned method for their activity vs. all target diseases, unless stated otherwise. Wheat leaf blotch and brown rust activity were also evaluated using track spray applications, in which case the fungicides were formulated as EC formulations, containing 0.1% Trycol 5941 in the spray solutions. Example B: Evaluation of Fungicidal Activity: Wheat Brown Rust (Puccinia triticina; Synonym: Puccinia recondita f. sp. tritici; Bayer Code PUCCRT) Wheat plants (variety Yuma) were grown from seed in a greenhouse in 50% mineral soil/50% soil-less Metro mix until the first leaf was fully emerged, with 7-10 seedlings per pot. These plants were inoculated with an aqueous spore suspension of Puccinia triticina either prior to or after fungicide treatments. After inoculation the plants were kept in a dark dew room at 22° C. with 100% relative humidity overnight to permit spores to germinate and infect the leaf. The plants were then transferred to a greenhouse set at 24° C. for disease to develop. Fungicide formulation, application and disease assessment followed the procedures as described in the Example A.

[1] = 24 h, 1 Day Protectant, read-out: SEPTTR disease control rating, 1DP
[2] = 72 h, 3 Day Curative, read-out: SEPTTR disease control rating, 3DC
[3] = 24 h, 1 Day Protectant, read-out: PUCCRT disease control rating, 1DP
[4] = 72 h, 3 Day Curative, read-out: PUCCRT disease control rating, 3DC

Compound	PHAKPA 1DP (1 Day Protectant) disease control (Phakopsora pachyrhizi; 1 day protectant)	PHAKPA 3DC (3 Day Curative) disease control (Phakopsora pachyrhizi; 3 day curative)	pest or weed control at 100 ppm (Zymoseptoria tritici; [1]) [%]	pest or weed control at 100 ppm (Zymoseptoria tritici; [2]) [%]	pest or weed control at 100 ppm (Puccinia triticina; [3]) [%]	pest or weed control at 100 ppm (Puccinia triticina; [4]) [%]
COc1ccnc(C(=O)N[C@H](C(=O)O[C@@H](C)[C@@H](C)c2ccc(F)cc2C)C(C)C)c1OC(=O)C(C)C [Example 208]	A (>80)	D (≤0)				
COc1ccnc(C(=O)N[C@@H](C)C(=O)O[C@H](C)[C@H](C)c2ccc(F)cc2C)c1O [Example 133]			< 80	< 80	> 80	< 80
COc1ccnc(C(=O)N[C@H](C)C(=O)O[C@@H](C)[C@H](C)c2ccccc2C)c1O [Example 150]			< 80	< 80	< 0	< 80
COc1cc(F)ccc1[C@@H](C)[C@@H](C)OC(=O)[C@H](C)NC(=O)c1nccc(OC)c1O [Example 173]			< 80	< 80	> 80	< 80
COc1ccnc(C(=O)N[C@@H](C)C(=O)O[C@@H](C)[C@@H](C)c2ccc(C)cc2C)c1O [Example 116]			< 80	> 80	> 80	> 80
COc1ccc([C@@H](C)[C@@H](C)OC(=O)CNC(=O)c2nccc(OC)c2O)c(C)c1 [Example 127]			< 0	< 80	< 80	< 80
COc1ccnc(C(=O)N[C@@H](C)C(=O)O[C@@H](C)[C@@H](C)c2ccc(C)s2)c1O [Example 172]			< 80	< 80	< 80	> 80
COc1ccnc(C(=O)N[C@@H](C)C(=O)O[C@H](C)[C@H](C)C2CCCC2)c1O [Example 163]			< 80	< 80	< 80	< 80
COc1ccnc(C(=O)NCC(=O)O[C@@H](C)[C@@H](C)c2ccc(F)cc2)c1O [Example 121]			< 0	< 80	> 80	> 80
COc1ccnc(C(=O)N[C@H](C(=O)O[C@@H](C)[C@@H](C)c2ccc(F)cc2)C(C)C)c1O [Example 141]			> 80	< 80	> 80	< 80
COc1ccnc(C(=O)NCC(=O)O[C@H](C)[C@@H](C)c2ccc(F)cc2C)c1O [Example 124]			< 0	< 80	< 80	< 0
COc1ccc([C@@H](C)[C@@H](C)OC(=O)[C@@H](NC(=O)c2nccc(OC)c2O)C(C)C)c(C)c1 [Example 147]			> 80	< 80	> 80	< 80
COc1ccnc(C(=O)N[C@@H](C)C(=O)OC(C)C(C)c2c(C)cccc2C)c1O (stereo partly drawn) [Example 164]			< 80	> 80	> 80	> 80
COc1ccnc(C(=O)N[C@@H](C)C(=O)O[C@H](C)[C@H](C)c2ccc(F)cc2)c1O [Example 136]			< 80	< 80	> 80	< 80
